Assay results as given in US11390618B2, “Inhibitors of cyclin-dependent kinases” (Kinnate Biopharma Inc., priority 2018, dated 2022).

Molecular target: CDK12 wt/CycK (Homo sapiens (Human), UniProt Q9NYV4)
Assay: Radiometric protein kinase assay (33PanQinase Activity Assay), Assay Condition A (thiol containing conditions)
Type: biochemical
Conditions: thiol containing conditions (1.2 mM DTT), ATP at apparent Km
Description: Objective: The IC50 profile of test compounds was determined using three protein kinases.
Test compounds: The compounds were provided as pre-weighed powders in vials. The compounds were dissolved to 1×10^−02M by adding DMSO. 100 μl of each of the resulting stock solutions were transferred into column 2 of four 96 well “master plates”.
Prior to testing, the 1×10^−02M stock solutions in column 2 of the master plates were subjected to a serial, semi-logarithmic dilution using 100% DMSO as a solvent. […] Column 1 and 7 were filled with 100% DMSO as controls. […]
The reaction cocktails were incubated at 30° C. for 60 minutes. […] Incorporation of ^33Pi was determined with a microplate scintillation counter (Microbeta, Wallac). […]
Evaluation of raw data: The median value of the counts in column 1 (n=8) of each assay plate was defined as “low control”. This value reflects unspecific binding of radioactivity to the plate in the absence of a protein kinase but in the presence of the substrate. […]
As part of the data evaluation the low control value from a particular plate was subtracted from the high control value as well as from all 80 “compound values” of the corresponding plate. The residual activity (in %) for each well of a particular plate was calculated by using the following formula: Res. Activity (%)=100×[(cpm of compound−low control)/(high control−low control)] […]

Sequence of CDK12 wt/CycK (Q9NYV4 whole entry): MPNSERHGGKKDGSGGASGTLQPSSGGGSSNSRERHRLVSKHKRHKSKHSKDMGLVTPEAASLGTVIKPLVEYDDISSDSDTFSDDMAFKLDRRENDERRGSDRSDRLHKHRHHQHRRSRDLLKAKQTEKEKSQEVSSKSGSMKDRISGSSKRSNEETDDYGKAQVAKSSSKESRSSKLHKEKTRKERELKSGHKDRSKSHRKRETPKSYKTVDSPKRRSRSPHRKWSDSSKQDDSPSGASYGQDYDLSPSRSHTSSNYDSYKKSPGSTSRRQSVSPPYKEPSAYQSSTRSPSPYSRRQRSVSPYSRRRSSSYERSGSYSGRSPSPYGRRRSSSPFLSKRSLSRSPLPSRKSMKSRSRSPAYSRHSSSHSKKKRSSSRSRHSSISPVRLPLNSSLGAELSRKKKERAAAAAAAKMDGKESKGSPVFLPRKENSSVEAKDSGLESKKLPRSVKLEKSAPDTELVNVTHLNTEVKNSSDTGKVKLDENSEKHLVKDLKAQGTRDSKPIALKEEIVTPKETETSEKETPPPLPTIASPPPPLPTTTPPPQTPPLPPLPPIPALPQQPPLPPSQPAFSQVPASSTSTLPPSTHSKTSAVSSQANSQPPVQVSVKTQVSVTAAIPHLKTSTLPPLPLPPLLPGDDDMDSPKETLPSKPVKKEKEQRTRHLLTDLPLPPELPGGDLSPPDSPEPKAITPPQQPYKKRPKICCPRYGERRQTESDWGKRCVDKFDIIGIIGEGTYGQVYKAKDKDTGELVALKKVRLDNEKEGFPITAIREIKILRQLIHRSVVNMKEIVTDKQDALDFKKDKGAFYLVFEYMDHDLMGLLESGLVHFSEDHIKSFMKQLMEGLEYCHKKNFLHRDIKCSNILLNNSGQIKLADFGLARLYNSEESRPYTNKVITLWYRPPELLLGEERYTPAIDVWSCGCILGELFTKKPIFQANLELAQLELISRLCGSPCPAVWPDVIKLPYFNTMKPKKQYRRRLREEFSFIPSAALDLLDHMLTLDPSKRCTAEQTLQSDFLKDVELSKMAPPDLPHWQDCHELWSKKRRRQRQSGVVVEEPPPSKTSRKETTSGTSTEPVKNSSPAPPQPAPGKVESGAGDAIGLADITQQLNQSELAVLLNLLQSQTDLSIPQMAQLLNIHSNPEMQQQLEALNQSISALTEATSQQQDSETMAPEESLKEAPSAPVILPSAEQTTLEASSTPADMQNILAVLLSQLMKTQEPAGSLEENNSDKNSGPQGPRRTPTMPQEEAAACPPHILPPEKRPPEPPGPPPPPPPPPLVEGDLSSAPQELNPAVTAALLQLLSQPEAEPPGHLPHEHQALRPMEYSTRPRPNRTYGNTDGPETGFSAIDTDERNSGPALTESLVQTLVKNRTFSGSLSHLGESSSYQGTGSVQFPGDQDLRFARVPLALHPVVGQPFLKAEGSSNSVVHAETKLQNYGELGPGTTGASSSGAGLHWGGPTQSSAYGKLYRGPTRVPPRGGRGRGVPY
Sequence of CDK12 wt/CycK (O75909 whole entry partner): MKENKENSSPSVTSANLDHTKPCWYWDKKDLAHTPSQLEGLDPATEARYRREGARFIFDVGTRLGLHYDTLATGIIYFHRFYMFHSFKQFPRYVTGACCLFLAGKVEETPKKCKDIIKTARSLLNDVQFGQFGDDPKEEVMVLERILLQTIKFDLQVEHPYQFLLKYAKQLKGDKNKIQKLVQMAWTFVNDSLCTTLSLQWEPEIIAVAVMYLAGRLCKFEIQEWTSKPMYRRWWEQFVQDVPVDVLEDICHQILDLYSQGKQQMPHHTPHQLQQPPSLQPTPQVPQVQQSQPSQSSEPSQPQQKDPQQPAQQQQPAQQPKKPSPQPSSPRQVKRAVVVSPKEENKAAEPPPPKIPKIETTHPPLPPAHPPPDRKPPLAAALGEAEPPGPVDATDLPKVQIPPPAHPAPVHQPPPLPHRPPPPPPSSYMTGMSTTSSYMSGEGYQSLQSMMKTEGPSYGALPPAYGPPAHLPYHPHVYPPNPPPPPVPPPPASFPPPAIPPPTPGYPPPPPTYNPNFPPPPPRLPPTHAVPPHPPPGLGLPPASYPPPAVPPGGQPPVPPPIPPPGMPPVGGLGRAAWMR

| Compound | IC50 |
| --- | --- |
| COc1nc(N[C@@H]2CCN(C(=O)c3ccc(NC(=O)/C=C/CN4CC[C@@H](F)C4)cn3)C2)ncc1Cl [Example 170, (E)-N-(6-((R)-3-((5-chloro-4-methoxypyrimidin-2-yl)amino)pyrrolidine-1-carbonyl)pyridin-3-yl)-4-((R)-3-fluoropyrrolidin-1-yl)but-2-enamide] | 0.1 to 1 µM |
| (R)—N-(3-(3-((5-chloropyrimidin-2-yl)amino)pyrrolidine-1-carbonyl)phenyl)-2-cyano-3-(dimethylamino)acrylamide [Example 135] | 1 to 10 µM |
